Counter-ions that a name gives are not always drawn. Like-named read-outs stand apart in the source and are kept apart here. Blank lines part the entries; values can stand above or below the molecule they belong to.
Experiments:
[1] = molecular target: T1, HPH 2 (Homo sapiens, UniProt Q9GZT9, DEL76-177); test: Activity of purified recombinant HPH 2 on HIF-1a peptide substrate; type: biochemical; conditions: additive added (CoCl2 in excess)
T1 construct: MBP (N); made in house; host or cells: E. coli BL21-CodonPlus-RIL

[2] = tested on: prolyl-4-hydroxylase activity capable of modifying a proline-containing peptide derived from the ODD; conditions: cited from earlier work
[3] = molecular target: human HIF-1a ODD peptide (Homo sapiens, UniProt Q16665, M561A/M568A); test: [35S]-pVHL pull-down prolyl hydroxylase assay with biotinylated HIF-1a ODD peptide; type: biochemical; conditions: enzyme in vitro transcribed/translated in rabbit reticulocyte lysate; ascorbate, 2-oxoglutarate, FeSO4 present

T1 sequence (Q9GZT9 with tags, fused parts or gaps DEL76-177): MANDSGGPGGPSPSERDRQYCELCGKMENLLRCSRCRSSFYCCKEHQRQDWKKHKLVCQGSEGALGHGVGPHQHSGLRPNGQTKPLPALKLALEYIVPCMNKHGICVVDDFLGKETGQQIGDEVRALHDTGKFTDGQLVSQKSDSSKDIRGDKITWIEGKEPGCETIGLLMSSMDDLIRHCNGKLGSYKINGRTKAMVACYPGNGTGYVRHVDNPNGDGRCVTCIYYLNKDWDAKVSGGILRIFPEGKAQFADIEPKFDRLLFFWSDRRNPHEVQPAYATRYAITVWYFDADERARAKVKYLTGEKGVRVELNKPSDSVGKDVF

- effect on activity of the HPH 2 enzyme [1]: greatly stimulated
Molecule: O=S(=O)([O-])[O-].[Fe+2] [FeSO4]

Molecule: CC(=O)N(O)CCCCCNC(=O)CCC(=O)N(O)CCCCCNC(=O)CCC(=O)N(O)CCCCCN [deferoxamine mesylate]
- prolyl-4-hydroxylase activity in extracts ([2]; extracts prepared in the presence of hypoxia mimics): greatly diminished

Molecule: CoCl2
- prolyl-4-hydroxylase activity in extracts [2]: greatly diminished

Molecule: HPH 3: human HPH 1 paralog, Genbank BC001723
- prolyl hydroxylase activity (pVHL association with the biotinylated peptide) [3]: catalyze the hydroxylation
